Molecules are shown by their SMILES. Where a name gives a salt, the structure may show the parent alone.

The test system of test [1] is Human lung cancer cell line A549. Put plainly: MTT cancer cell cytotoxicity assay, A549. The test is classed as cell-based. To be noted: A549 cells, 48-72 h. On the procedure: (§1) Identification of 3-(2-methoxyphenyl)-6-(4-methoxyphenyl)-[1,2,4]triazolo[4,3-a]pyridine and analogs as inhibitors of cell proliferation that were evaluated with standard MTT cancer cell cytotoxicity assay (IC50)
(§2) Human lung cancer cell line A549, breast cancer cell line T47D, liver cancer cell lines HepG2 and SMMC7721 as well as a mouse melanoma cell line B16F10 were used in the study. The cells were cultured in corresponding growth media recommended by American Type Culture Collection (ATCC) with the supplementation of penicillin G (100 U/ml)/streptomycin (100 µg/ml), and 10% fetal bovine serum (Hangzhou Sijiqing Biological Engineering Materials, Co., Ltd. China) at 37° C. in a humidified atmosphere containing 5% CO2. Cells at about 80% confluency were harvested by trypsinization. Cells were centrifuged, re-suspended in fresh growth media and counted. Corresponding numbers of cells were seeded to 96-well cell culture plates (HepG2 cell, T-47D and A549 cells at 3000 cells/well, SMMC-7721 cells at 5000 cells/well and B16F10 cells at 2000 cells/well) in a total volume of […]. Cells were incubated in CO2 incubator over night to allow the cells to attach. In next day, […] of medium containing testing (from 10 μM to 1 nM) or reference compounds was added to each well of the cells. Media without compound were used as 100% control. Cells were treated with each concentration of compounds in triplicates to ensure data accuracy. Cells were incubated with compounds in CO2 incubator for an additional 48-72 h at 37° C. After incubation, cells were removed from the CO2 incubator and […] of 5 mg/ml MTT (3-(4,5-dimethylthiazole-2-yl)-2,5-diphenyltetrazoliumbromide, Sigma) solution in PBS was added to each well. Cells were returned to CO2 incubator and incubated for additional 4 h. After the incubation, media were removed by aspiration and […] DMSO was added to each well. Plates were sealed with aluminum foil and shaked mildly on an orbital shaker for 10 min at room temperature. The absorption was measured at 550 nm with a plate reader (Varioskan Flash, Thermo Fisher Scientific) with 660 nm reading used as background control. The relative absorbance readings were calculated by subtracting readings at 660 nm from that at 550 nm. The relative absorbance was plotted again the concentrations of the testing compounds and the plots were fitted with a one-site lg(IC50) equation using Prism 5 software (GraphPad Software, Inc). The equation used in the curve fitting is as follows: relative absorbance reading=background reading+(maximal reading−brackground reading)/(1+10 ^(compound concentration-log IC50)). The background reading used in the calculation was obtained with 100% cell death using a reference anticancer drug, whereas the maximal reading was obtained in the well with no added compound. The IC50 value calculated from the equation represents the cytotoxic potency of a particular compound.

Test [2] concerns liver cancer cell line HepG2. Description: MTT cancer cell cytotoxicity assay, HepG2. The format is cell-based, human. To be noted: HepG2 cells, 48-72 h. As to the method:
as §1, §2

For test [3], the system named is liver cancer cell line SMMC7721. Description: MTT cancer cell cytotoxicity assay, SMMC7721. The test is classed as cell-based, human. To be noted: 48-72 h. On the procedure:
as §1, §2

For test [4], the system named is breast cancer cell line T47D. Put plainly: MTT cancer cell cytotoxicity assay, T47D. To be noted: T47D cells, 48-72 h. The format is cell-based, human. As to the method:
as §1, §2

Test [5] deals with mouse melanoma cell line B16F10. Put plainly: MTT cancer cell cytotoxicity assay, B16F10. The format is cell-based. To be noted: 48-72 h. On the procedure:
as §1, §2

Setting [6] is: Homo sapiens, SMMC-7721, SMMC7721 cells.
The mark [7] stands for this setting: Mus musculus, B16-F10, B16F10 cells.

One may read the IC50 as the point on the concentration scale where inhibition reaches its midpoint. Consider `COc1cccc(-c2ccc3nnc(-c4ccccc4OC)n3c2)c1` [Example 2, 3-(2-Methoxyphenyl)-6-(3-methoxyphenyl)-[1,2,4]triazolo[4,3-a]pyridine], for which the IC50 in test [1] (Homo sapiens) is 252 nM; in test [2] (Homo sapiens), 189 nM; in test [3] (setting [6]), 79 nM; in test [4] (Homo sapiens) it was 184 nM; in test [5] (setting [7]), 152 nM.

Consider `COc1ccccc1-c1ccc2nnc(-c3ccccc3OC)n2c1` [Example 3, 3,6-Bis(2-methoxyphenyl)-[1,2,4]triazolo[4,3-a]pyridine], for which the IC50 in test [1] (Homo sapiens), in test [2] (Homo sapiens), in test [3] (setting [6]), in test [4] (Homo sapiens) and in test [5] (setting [7]) was greater than 10000 nM throughout.

As for `COc1ccccc1-c1nnc2ccc(-c3ccc(OC(C)C)cc3)cn12` [Example 6, 6-(4-Isopropoxyphenyl)-3-(2-methoxyphenyl)-[1,2,4]triazolo[4,3-a]pyridine], the IC50 in test [1] (Homo sapiens) is 1060 nM; in test [2] (Homo sapiens), 1160 nM; in test [3] (setting [6]) it was 535 nM; in test [4] (Homo sapiens) it was 697 nM; in test [5] (setting [7]), 591 nM.

With `CCc1ccc(-c2ccc3nnc(-c4ccccc4OC)n3c2)cc1` [Example 7, 6-(4-Ethylphenyl)-3-(2-methoxyphenyl)-[1,2,4]triazolo[4,3-a]pyridine], the half-inhibitory concentration (IC50) in test [1] (Homo sapiens) turned out to be 217 nM; in test [2] (Homo sapiens), 136 nM; in test [3] (setting [6]) it was 59 nM; in test [4] (Homo sapiens), 158 nM; in test [5] (setting [7]) it was 220 nM.

For `COc1ccccc1-c1nnc2ccc(-c3ccc(OC(F)(F)F)cc3)cn12` [Example 11, 3-(2-Methoxyphenyl)-6-(4-trifluoromethoxyphenyl)-[1,2,4]trizolo[4,3-a]pyridine], the IC50 is greater than 10000 nM in test [1]; 5290 nM in test [2]; 2910 nM in test [3] (SMMC7721 cells); greater than 10000 nM in test [4]; 5000 nM in test [5] (B16F10 cells).

With `COc1ccccc1-c1nnc2ccc(-c3ccccc3)cn12` [Example 24, 3-(2-Methoxyphenyl)-6-phenyl-[1,2,4]triazolo[4,3-a]pyridine], the IC50 in test [1] (Homo sapiens), in test [2] (Homo sapiens), in test [3] (setting [6]), in test [4] (Homo sapiens) and in test [5] (setting [7]) was greater than 10000 nM in each case.

Consider `COc1ccccc1-c1nnc2ccc(-c3ccc(C(F)(F)F)cc3)cn12` [Example 27, 3-(2-Methoxyphenyl)-6-(4-trifluoromethylphenyl)-[1,2,4]triazolo[4,3-a]pyridine], for which the IC50 was determined as 9630 nM in test [1] (Homo sapiens); 2640 nM in test [2] (Homo sapiens); 2250 nM in test [3] (setting [6]); 4260 nM in test [4] (Homo sapiens); 3820 nM in test [5] (setting [7]).

Turning to `CCCCCCOc1ccc(-c2ccc3nnc(-c4ccccc4OC)n3c2)cc1` [Example 34, 6-(4-Hexyloxyphenyl)-3-(2-methoxyphenyl)-[1,2,4]triazolo[4,3-a]pyridine], the concentration for half-maximal inhibition (IC50) in test [1] (Homo sapiens), in test [2] (Homo sapiens), in test [3] (setting [6]), in test [4] (Homo sapiens) and in test [5] (setting [7]) was greater than 10000 nM each time.

For the molecule `CCOc1ccc(-c2ccc3nnc(-c4ccccc4OC)n3c2)cc1` [Example 38, 6-(4-Ethoxyphenyl)-3-(2-methoxyphenyl)-[1,2,4]triazolo[4,3-a]pyridine], the IC50 in test [1] (Homo sapiens) is 49 nM; in test [2] (Homo sapiens), 80 nM; in test [3] (setting [6]) it was 27 nM; in test [4] (Homo sapiens) it was 74 nM; in test [5] (setting [7]), 129 nM.

Regarding `COc1ccccc1-c1nnc2ccc(-c3ccc([N+](=O)[O-])cc3)cn12` [Example 39, 3-(2-Methoxyphenyl)-6-(4-nitrophenyl)-[1,2,4]triazolo[4,3-a]pyridine], the IC50 was 3000 nM in test [1] (Homo sapiens); 3250 nM in test [2] (Homo sapiens); 5440 nM in test [3] (setting [6]); greater than 10000 nM in test [4] (Homo sapiens); greater than 10000 nM in test [5] (setting [7]).

For `COc1ccccc1-c1nnc2ccc(-c3ccc(OC)c([N+](=O)[O-])c3)cn12` [Example 40, 6-(4-Methoxy-3-nitrophenyl)-3-(2-methoxyphenyl)-[1,2,4]triazolo[4,3-a]pyridine], the IC50 was 2660 nM in test [1] (Homo sapiens); 2460 nM in test [2] (Homo sapiens); 72 nM in test [3] (setting [6]); 896 nM in test [4] (Homo sapiens); greater than 10000 nM in test [5] (setting [7]).

Regarding `COc1ccc(-c2ccc3nnc(-c4ccc(C(F)(F)F)cc4OC)n3c2)cc1` [Example 60, 3-(2-Methoxy-4-trifluoromethylphenyl)-6-(4-methoxyphenyl)-[1,2,4]triazolo[4,3-a]pyridine], the 50% inhibitory concentration (IC50) in test [1] (Homo sapiens) worked out at 91 nM; in test [2] (Homo sapiens), 41 nM; in test [3] (setting [6]), 18 nM; in test [4] (Homo sapiens), 68 nM; in test [5] (setting [7]) it was 37 nM.

For the molecule `COc1ccc(-c2ccc3nnc(-c4cc(S(N)(=O)=O)ccc4OC)n3c2)cc1` [Example 75, 6-(4-Methoxyphenyl)-3-(2-methoxy-5-sulfamoylphenyl)-[1,2,4]triazolo[4,3-a]pyridine], the IC50 in test [1] (Homo sapiens), in test [2] (Homo sapiens), in test [3] (setting [6]) and in test [4] (Homo sapiens) was greater than 10000 nM in each case.

As to `COc1ccc(-c2ccc3nnc(-c4cc(C)ccc4OC)n3c2)cc1` [Example 76, 3-(2-Methoxy-5-methylphenyl)-6-(4-methoxyphenyl)-[1,2,4]triazolo[4,3-a]pyridine], the IC50 turned out to be 533 nM in test [1] (Homo sapiens), 283 nM in test [2] (Homo sapiens), 104 nM in test [3] (setting [6]) and 633 nM in test [4] (Homo sapiens).

On to `COc1ccc(-c2ccc3nnc(-c4cccc(OC)c4)n3c2)cc1` [Example 77, 3-(3-Methoxyphenyl)-6-(4-methoxyphenyl)-[1,2,4]triazolo[4,3-a]pyridine], for which the IC50 stood at 4880 nM in test [1] (Homo sapiens), 2210 nM in test [2] (Homo sapiens), 962 nM in test [3] (setting [6]) and 1950 nM in test [4] (Homo sapiens).

With `COc1ccc(-c2ccc3nnc(-c4ccccc4C)n3c2)cc1` [Example 78, 6-(4-Methoxyphenyl)-3-(2-methylphenyl)-[1,2,4]triazolo[4,3-a]pyridine], the half-inhibitory concentration (IC50) in test [1] (Homo sapiens) turned out to be 610 nM; in test [2] (Homo sapiens) it was 264 nM; in test [3] (setting [6]), 109 nM; in test [4] (Homo sapiens), 129 nM.

Turning to `CNc1ccccc1-c1nnc2ccc(-c3ccc(OC)cc3)cn12` [Example 79, 6-(4-Methoxyphenyl)-3-(2-methylaminophenyl)-[1,2,4]triazolo[4,3-a]pyridine], the IC50 was found to be 167 nM in test [1] (Homo sapiens), 122 nM in test [2] (Homo sapiens), 69 nM in test [3] (setting [6]) and 73 nM in test [4] (Homo sapiens).

For `COc1ccc(-c2ccc3nnc(-c4ccccc4N(C)C)n3c2)cc1` [Example 80, 3-(2-Dimethylaminophenyl)-6-(4-methoxyphenyl)-[1,2,4]triazolo[4,3-a]pyridine], the IC50 in test [1] (Homo sapiens) was determined as 118 nM; in test [2] (Homo sapiens) it was 81 nM; in test [3] (setting [6]), 35 nM; in test [4] (Homo sapiens) it was 62 nM.

As to `COc1ccc(-c2ccc3nnc(-c4cccnc4Cl)n3c2)cc1` [Example 85, 3-(2-Chloropyridin-3-yl)-6-(4-methoxyphenyl)-[1,2,4]triazolo[4,3-a]pyridine], the IC50 in test [1] (Homo sapiens) was greater than 10000 nM; in test [2] (Homo sapiens) it was 3870 nM; in test [3] (setting [6]) it was 1890 nM; in test [4] (Homo sapiens), 4340 nM.

With `COc1ccc(-c2ccc3nnc(-c4cccnc4OC)n3c2)cc1` [Example 86, 6-(4-Methoxyphenyl)-3-(2-methoxypyridin-3-yl)-[1,2,4]triazolo[4,3-a]pyridine], the IC50 was 41 nM in test [1] (Homo sapiens), 58 nM in test [2] (Homo sapiens), 32 nM in test [3] (setting [6]) and 40 nM in test [4] (Homo sapiens).

Consider `COc1ccc(-c2ccc3nnc(-c4ccc(N)cc4OC)n3c2)cc1` [Example 87, 3-(4-Amino-2-methoxyphenyl)-6-(4-methoxyphenyl)-[1,2,4]triazolo[4,3-a]pyridine hydrochloride], for which the half-inhibitory concentration (IC50) stood at 711 nM in test [1] (Homo sapiens), 356 nM in test [2] (Homo sapiens), 175 nM in test [3] (setting [6]) and 308 nM in test [4] (Homo sapiens).

The values above are taken from patent publication US9199983B2, “3-aryl-6-aryl-[1,2,4]triazolo[4,3-α]pyridines as inhibitors of cell proliferation and the use thereof” (priority 2010, dated 2015).
